Test results published in US6069132A, “Phosphazole compounds” (priority 1997, dated 2000).

What was measured:
THP-1 cells = assay: Cytotoxicity on growing THP-1 cells (MTS assay); assay type: cell-based, human; details: 4 days (FIG. 1A)
Method: Cytotoxicity Analysis. The cytotoxicity of the compounds were assayed using the CellTiter 96™ Aqueous Non-Radioactive Cell Proliferation (MTS) Assay kit obtained from Promega (Madison, Wis.) following the instructions provided by the supplier. The viable cell number was determined by trypan blue staining and cells (THP-1) were resuspended in PRMI supplemented with 10% FBS (GIBCO). Eighty microliters of cell suspension (1.7×10^4cells/well) was dispensed onto a 96-well microtiter plates. At this time 20 μL of drug (or control) was added to appropriate wells. Each concentration was assayed in quadruplicate. The plates were incubated at 37° C. in a humidified 5% CO2 atmosphere for 4 days and MTS assay […] for each concentration and the data obtained was used to calculate TC50 (the concentration of the compound necessary to inhibit the cell growth by 50%) for each compound.

MRC-5 cells = assay: Cytotoxicity on growing MRC-5 cells (MTS); assay type: cell-based, human
[1] = test system: adenosine deaminase (ADA); assay: Enzymatic hydrolysis by adenosine deaminase; assay type: in vitro ADME, calf
Method: Adenosine deaminase (ADA, adenosine aminohydrolase, EC 3.5.4.4, SIGMA) from calf intestinal mucosa was prepared to give a stock of 1 mg/mL (250-280 units/mL) in pH 7.4, 0.01 M phosphate buffer. The relative rates of hydrolysis of selected compounds by ADA and characterization of the products was carried as follows. […] Fifty-microliter aliquots were taken at time intervals and hydrolysis was quenched by mixing with 0.45 mL of distilled water and then the diluted sample was heated at 95° C. for 6 min to ensure enxyme deactivation. The decrease in substrate concentration and the formation of the products was followed over time by UV-spectroscopic analysis. Adenosine was used as a control in this experiment and one unit is defined as the amount of ADA that hydrolyzes 1.0 μmol of adenosine/min at 25° C.

Q: How did the “effect on THP-1 growth” value (THP-1 cells; higher concentrations) turn out when `Nc1ncnc2pc[nH]c12` (stereo not drawn) [T70241, 7-amino-1H-1,3-azaphospholo[4,5-d]pyrimidine] was run?
A: stimulates THP-1 growth at higher concentrations

Q: And the “toxic effect on THP-1 cells” value (THP-1 cells; up to 1 mg/mL)?
A: no toxic effect on the THP-1 cells

Q: What about the “toxic effect on growing MRC-5 cells” value (MRC-5 cells; FIG. 9A, four day period) of the same molecule?
A: slight toxic effect on growing MRC-5 cells

Q: What about the “TC50 Growing MRC-5” value (MRC-5 cells; Table 4, 50% inhibition of logphase growing cells, 5760 min) of the same molecule?
A: > 50 µg/mL

Q: And the “ADA substrate” value [1]?
A: not a substrate for ADA

Q: And the “hydrolysis by ADA: UV spectra” value ([1]; up to 5 hours in presence of ADA)?
A: remained unchanged
